Results reported in patent US20220323406A1, “METHODS AND COMPOSITIONS FOR DIFFERENTIATING STEM CELLS” (Massachusetts Institute of Technology, priority 2019, published 2022).

Legend:
[1] = tested on: ENR+CD organoids (ISC to Paneth cell differentiation); assay: Primary screen: basal (non-stimulated) lysozyme secretion LYZ.NS, 2.5-D 384-well ENR+CD organoid differentiation; format: cell-based, mouse
From the text: (§1) High-throughput screening.

[2] = tested on: ENR+CD organoids (ISC to Paneth cell differentiation); assay: Primary screen: CCh-stimulated lysozyme secretion LYZ.S, 2.5-D 384-well ENR+CD organoid differentiation; format: cell-based, mouse; conditions: primary screen
From the text: as §1

ENR+CD organoids = assay: Primary screen: ATP (CellTiter-Glo 3D, CTG) cell number/viability, 2.5-D 384-well ENR+CD organoids; conditions: primary screen; for Z.CTG: standard z score;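 as to all read-outs here: compounds given at plating and again on day 3 over a 6-day differentiation from ENR+CV stem-cell-enriched precursors, ATP measured on day 6, plate median as control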
[3] = dose 0.08 uM, FC vs plate median
[4] = dose 0.40 uM, FC vs plate median
[5] = dose 2.00 uM, FC vs plate median
[6] = dose 10.00 uM, FC vs plate median

Structure (SMILES) | Dose.FC.LYZ.NS (log2 fold change) ([1]; primary screen, dose 0.08 uM) | Z.LYZ.NS (standard z score) ([1]; primary screen, dose 0.08 uM) | Dose.FC.LYZ.NS (log2 fold change) ([1]; primary screen, dose 0.40 uM) | Z.LYZ.NS (standard z score) ([1]; primary screen, dose 0.40 uM) | Dose.FC.LYZ.NS (log2 fold change) ([1]; primary screen, dose 2.00 uM) | Z.LYZ.NS (standard z score) ([1]; primary screen, dose 2.00 uM) | Dose.FC.LYZ.NS (log2 fold change) ([1]; primary screen, dose 10.00 uM) | Z.LYZ.NS (standard z score) ([1]; primary screen, dose 10.00 uM) | Dose.FC.LYZ.S (log2 fold change) ([2]; dose 0.08 uM) | Dose.FC.LYZ.S (log2 fold change) ([2]; dose 0.40 uM) | Dose.FC.LYZ.S (log2 fold change) ([2]; dose 2.00 uM) | Dose.FC.LYZ.S (log2 fold change) ([2]; dose 10.00 uM) | Dose.FC.CTG (log2 fold change) (ENR+CD organoids; dose 0.08 uM) | Dose.FC.CTG (log2 fold change) (ENR+CD organoids; dose 0.40 uM) | Dose.FC.CTG (log2 fold change) (ENR+CD organoids; dose 2.00 uM) | Dose.FC.CTG (log2 fold change) (ENR+CD organoids; dose 10.00 uM) | also measured
CCOC(=O)N1CCC(=C2c3ccc(Cl)cc3CCc3cccnc32)CC1 [Loratadine] | 0.011 | 0.093 | −0.001 | −0.005 | −0.108 | −0.938 | −0.101 | −0.881 | −0.076 | 0.011 | −0.148 | −0.148 | −0.292 | 0.145 | −0.204 | −0.120 | 
O=C(Nc1cc(C(F)(F)F)cc(C(F)(F)F)c1)c1cc(Cl)ccc1O [IMD 0354] | 0.004 | 0.035 | 0.101 | 0.880 | 0.097 | 0.847 | −0.089 | −0.777 | −0.047 | 0.043 | 0.083 | −0.128 | −0.007 | 0.117 | 0.076 | −0.480 | 
Cc1c(C(=O)Nc2ccc(N3C[C@@H](C)O[C@@H](C)C3)nc2)cccc1-c1ccc(OC(F)(F)F)cc1 [LDE225 (NVP-LDE225, Erismodegib)] | 0.085 | 0.739 | 0.101 | 0.881 | 0.011 | 0.094 | 0.049 | 0.426 | 0.095 | 0.074 | 0.002 | 0.006 | 0.107 | 0.067 | 0.229 | −0.001 | Z.CTG (standard z score) (ENR+CD organoids; dose 0.08 uM): 0.255; Z.CTG (standard z score) (ENR+CD organoids; dose 0.40 uM): 0.159; Z.CTG (standard z score) (ENR+CD organoids; dose 2.00 uM): 0.546; Z.CTG (standard z score) (ENR+CD organoids; dose 10.00 uM): −0.002
C[C@](O)(COc1ccc(C#N)cc1)C(=O)Nc1ccc(C#N)c(C(F)(F)F)c1 [MK-2866 (GTx-024)] |  |  |  |  |  |  |  |  |  |  |  |  |  |  |  |  | Z.LYZ.NS ([1]; primary screen, dose 0.08 uM, standard z score): 0.309; Z.LYZ.NS ([1]; primary screen, dose 0.40 uM, standard z score): 0.241; Z.LYZ.NS ([1]; primary screen, dose 2.00 uM, standard z score): 0.310; Z.LYZ.NS ([1]; primary screen, dose 10.00 uM, standard z score): −0.510; Dose.FC.LYZ.NS ([1]; primary screen; dose 0.08 uM; FC vs plate median): 0.035 log2 fold change; Dose.FC.LYZ.NS ([1]; primary screen; dose 0.40 uM; FC vs plate median): 0.028 log2 fold change; Dose.FC.LYZ.NS ([1]; primary screen; dose 2.00 uM; FC vs plate median): 0.036 log2 fold change; Dose.FC.LYZ.NS ([1]; primary screen; dose 10.00 uM; FC vs plate median): −0.059 log2 fold change; Dose.FC.LYZ.S [2, 3]: 0.072 log2 fold change; Dose.FC.LYZ.S [2, 4]: 0.050 log2 fold change; Dose.FC.LYZ.S [2, 5]: 0.078 log2 fold change; Dose.FC.LYZ.S [2, 6]: −0.072 log2 fold change; Z.CTG (ENR+CD organoids; dose 0.08 uM): 0.003; Z.CTG (ENR+CD organoids; dose 0.40 uM): −0.474; Z.CTG (ENR+CD organoids; dose 2.00 uM): −0.210; Z.CTG (ENR+CD organoids; dose 10.00 uM): −0.877; Dose.FC.CTG (ENR+CD organoids; [3]): 0.001 log2 fold change; Dose.FC.CTG (ENR+CD organoids; [4]): −0.198 log2 fold change; Dose.FC.CTG (ENR+CD organoids; [5]): −0.088 log2 fold change; Dose.FC.CTG (ENR+CD organoids; [6]): −0.367 log2 fold change
C[C@]12CC[C@@H]3c4ccc(O)cc4C[C@@H](CCCCCCCCC[S+]([O-])CCCC(F)(F)C(F)(F)F)[C@H]3[C@@H]1CC[C@@H]2O (stereo partly shown) [Fulvestrant] |  |  |  |  |  |  |  |  |  |  |  |  |  |  |  |  | Dose.FC.LYZ.NS ([1]; primary screen, dose 0.08 uM): 0.057 log2 fold change; Dose.FC.LYZ.NS ([1]; primary screen, dose 0.40 uM): −0.050 log2 fold change; Dose.FC.LYZ.NS ([1]; primary screen, dose 2.00 uM): 0.000 log2 fold change; Dose.FC.LYZ.NS ([1]; primary screen, dose 10.00 uM): −0.043 log2 fold change; Z.LYZ.NS ([1]; primary screen, standard z score, dose 0.08 uM): 0.500; Z.LYZ.NS ([1]; primary screen, standard z score, dose 0.40 uM): −0.432; Z.LYZ.NS ([1]; primary screen, standard z score, dose 2.00 uM): 0.003; Z.LYZ.NS ([1]; primary screen, standard z score, dose 10.00 uM): −0.376; Dose.FC.LYZ.S ([2]; dose 0.08 uM): 0.051 log2 fold change; Dose.FC.LYZ.S ([2]; dose 0.40 uM): −0.049 log2 fold change; Dose.FC.LYZ.S ([2]; dose 2.00 uM): −0.024 log2 fold change; Dose.FC.LYZ.S ([2]; dose 10.00 uM): −0.150 log2 fold change; Dose.FC.CTG (ENR+CD organoids; dose 0.08 uM): 0.119 log2 fold change; Dose.FC.CTG (ENR+CD organoids; dose 0.40 uM): −0.063 log2 fold change; Dose.FC.CTG (ENR+CD organoids; dose 2.00 uM): 0.142 log2 fold change; Dose.FC.CTG (ENR+CD organoids; dose 10.00 uM): −0.204 log2 fold change
